According to patent publication US12331040B2 (Karyopharm Therapeutics Inc., priority 2013, dated 2025):

Tests used:
[1] = system: PAK4 signalling in IMR-90 cells; assay: Western blots of PAK4 signalling in normal cells (IMR-90); format: cell-based; conditions: IMR-90 normal cell line; 72-hour treatment, increasing concentrations; Western blot
Procedure: (§1) Normal human dermal fibroblasts (NHDF) and normal lung cells (IMR-90) were treated with Compound 585 for 72 hours, at which time the cells were lysed in RIPA buffer. The lysates were run on SDS-PAGE and Western blots of phospho-PAK4, PAK4, phospho-cofilin, cofilin, phospho-β-catenin, β-catenin, PARP and caspase-3 were performed.

HTB-38 cells = assay: MTT cell proliferation assay; format: cell-based; conditions: 72-hour MTT
Procedure: (§2) The MTT cell proliferation assay was used to study the cytotoxic properties of the compounds. The assay was performed according to the method described by Roche Molecular Biochemicals, with minor modifications. The assay is based on the cleavage of the tetrazolium salt, MTT, in the presence of an electron-coupling reagent. The water-insoluble formazan salt produced must be solubilized in an additional step. Cells grown in a 96-well tissue culture plate were incubated with the MTT solution for approximately 4 hours. After this incubation period, a water-insoluble formazan dye formed. After solubilization, the formazan dye was quantitated using a scanning multi-well spectrophotometer (ELISA reader). […] The cells were seeded at 5,000-10,000 cells in each well of 96-well plate in 100 μL of fresh culture medium and were allowed to attach overnight. The stock solutions of the compounds were diluted in 100 μL cell culture medium to obtain eight concentrations of each test compound, ranging from 1 nM to 30 μM. […] All optical densities were measured at 490 nm using a Vmax Kinetic Microplate Reader (Molecular Devices). In most cases, the assay was performed in duplicate and the results were presented as a mean percent inhibition to the negative control±SE. The following formula was used to calculate the percent of inhibition: Inhibition (%)=(1−(ODo/OD))×100.
(§3) Compounds 504, 510, 525 and 585 were further tested against selected solid and hematological cancer cell lines and selected normal cell lines in a 72-hour MTT cell proliferation assay.

Farage cells = assay: MTT cell proliferation assay; format: cell-based; conditions: 72-hour MTT
Procedure: as §2, §3

HS-Sultan cells = assay: MTT cell proliferation assay; format: cell-based; conditions: 72-hour MTT
Procedure: as §2, §3

HeLa cells = assay: MTT cell proliferation assay; format: cell-based; conditions: Homo sapiens, 72-hour MTT
Procedure: as §2, §3

MDA-MB-415 cells = assay: MTT cell proliferation assay; format: cell-based; conditions: Homo sapiens, 72-hour MTT
Procedure: as §2, §3

Colo-201 cells = assay: MTT cell proliferation assay; format: cell-based; conditions: Homo sapiens, 72-hour MTT
Procedure: as §2, §3

NCI-H2030 cells = assay: MTT cell proliferation assay; format: cell-based; conditions: Homo sapiens, 72-hour MTT
Procedure: as §2, §3

SKOV3 cells = assay: MTT cell proliferation assay; format: cell-based; conditions: Homo sapiens, SK-OV-3, 72-hour MTT
Procedure: as §2, §3

NCI-H508 cells = assay: MTT cell proliferation assay; format: cell-based; conditions: Homo sapiens, 72-hour MTT
Procedure: as §2, §3

NCI-H2122 cells = assay: MTT cell proliferation assay; format: cell-based; conditions: Homo sapiens, 72-hour MTT
Procedure: as §2, §3

DoHH-2 cells = assay: MTT cell proliferation assay; format: cell-based; conditions: Homo sapiens, 72-hour MTT
Procedure: as §2, §3

HCT116.1 cells = assay: MTT cell proliferation assay; format: cell-based; conditions: 72-hour MTT
Procedure: as §2, §3

SNU-398 cells = assay: MTT cell proliferation assay; format: cell-based; conditions: Homo sapiens, 72-hour MTT
Procedure: as §2, §3

HCC-1143 cells = assay: MTT cell proliferation assay; format: cell-based; conditions: Homo sapiens, HCC1143, 72-hour MTT
Procedure: as §2, §3

[2] = system: PAK4 signalling in NHDF cells; assay: Western blots of PAK4 signalling in normal cells (NHDF); format: cell-based, human; conditions: NHDF normal cell line; 72-hour treatment, increasing concentrations; Western blot
Procedure: as §1

RPMI8226 cells = assay: MTT cell proliferation assay; format: cell-based; conditions: Homo sapiens, RPMI-8226; RPMI8226 cells; 72-hour MTT; read-out: RPMI8226 MTT IC50
HEP 3B cells = assay: MTT cell proliferation assay; format: cell-based; conditions: Homo sapiens, Hep3B; HEP 3B cells; 72-hour MTT; read-out: HEP 3B MTT IC50
Z-138 xenografts = assay: Z-138 mantle cell lymphoma xenograft in SCID mice; format: in vivo; set-up: toxicity (side effects, weight loss): dose or concentration left out as unconfirmed
Procedure: The impact of Compound 585 on tumor growth was tested using a Z-138 mantle cell lymphoma cancer xenograft model in SCID mice. Z-138 (ATCC #CRL-3001) mantle cell lymphoma cells were obtained from ATCC. These cells were grown in IMEM medium supplemented with 10% horse serum, 1% penicillin and streptomycin, and 2 mM L-glutamine. Cells were sub-cultured by dilution at a ratio of 1:5 to 1:10. Z-138 cells were harvested by centrifugation and counted using a hemocytometer. Cells were resuspended in PBS at a 2×10^8 cells per mL. Cells were placed on ice and mixed with an equal volume of Matrigel (BD Biosciences CB-40234). This mixture was kept on ice and injected into the left flank of mice in a volume of 0.2 mL, equivalent to 2×10^7 cells per mouse. Forty (40) CB-17 SCID mice were inoculated subcutaneously in the left flank with 2×10^7 Z-138 cells. Treatment was initiated when the tumors reached a mean volume of 125.2 mm^3. Mice were allocated to five (5) groups of eight (8) mice such that mean tumor volume in each group was within the range of 106.5 to 138.8 mm^3. Mice were treated with vehicle, standard of care/positive control drug (cyclophosphamide), or Compound 585. […] Animal weights and conditions were recorded daily, and tumors were measured on Mondays, Wednesdays and Fridays.

**Q.** With `Nc1ccc(/C=C/C(=O)NCc2cc3cc(-c4ccc(C(=O)N5CCC(F)(F)CC5)cn4)cc(C(F)(F)F)c3o2)cn1` [Compound 585, (E)-3-(6-aminopyridin-3-yl)-N-((5-(5-(4,4-difluoropiperidine-1-carbonyl)pyridin-2-yl)-7-(trifluoromethyl)benzofuran-2-yl)methyl)acrylamide] as the compound, how does the “effect on PAK4 signalling (phospho-PAK4, PAK4, phospho-cofilin, cofilin, phospho-β-catenin, β-catenin, PARP, caspase 3)” value [1] read?
**A.** little to no effect

**Q.** And the IC50 (HTB-38 cells)?
**A.** > 10 µM

**Q.** What about the IC50 (Farage cells) of the same compound?
**A.** 70 nM

**Q.** And the IC50 (HS-Sultan cells)?
**A.** 200 nM

**Q.** And the IC50 (HeLa cells)?
**A.** 60 nM

**Q.** What about the IC50 (MDA-MB-415 cells) of the same compound?
**A.** 1020 nM

**Q.** What about the IC50 (Colo-201 cells) of the same compound?
**A.** 560 nM

**Q.** What about the IC50 (NCI-H2030 cells) of the same compound?
**A.** 300 nM

**Q.** And the IC50 (SKOV3 cells)?
**A.** > 10 µM

**Q.** What about the IC50 (NCI-H508 cells) of the same compound?
**A.** 1460 nM

**Q.** And the IC50 (NCI-H2122 cells)?
**A.** 5.81 µM

**Q.** And the IC50 (DoHH-2 cells)?
**A.** 90 nM

**Q.** What about the IC50 (HCT116.1 cells) of the same compound?
**A.** > 10 µM

**Q.** And the IC50 (SNU-398 cells)?
**A.** 4.42 µM

**Q.** What about the IC50 (HCC-1143 cells) of the same compound?
**A.** 210 nM

**Q.** And the “effect on PAK4 signalling (phospho-PAK4, PAK4, phospho-cofilin, cofilin, phospho-β-catenin, β-catenin, PARP, caspase 3)” value [2]?
**A.** little to no effect

**Q.** And the IC50 (RPMI8226 cells)?
**A.** 150 nM

**Q.** And the IC50 (HEP 3B cells)?
**A.** 70 nM

**Q.** What about the “mean tumor volume of Z-138 xenografts” value (Z-138 xenografts; SCID mice, 10, 30, or 60 mg/kg PO daily) of the same compound?
**A.** tumor growth inhibition and even tumor regression

**Q.** What about the “toxicity (side effects, weight loss)” value (Z-138 xenografts; Z-138 xenograft model, minimal or no side effects or weight loss up to daily dose) of the same compound?
**A.** without major toxicity
